Measured values: patent US9067972B2, “Skin aging-inhibiting peptide” (CALPIS CO., LTD., priority 2008, dated 2015)
Peptide text beside a SMILES is read from it.

Test system: Caco-2 cells
Protocol: Caco-2 cells were obtained from the American Type Culture Collection. Cells with a passage number of 40 to 70 were used for the permeation test. The culture medium comprised Dulbecco's modified Eagle's medium (Sigma) supplemented with fetal bovine serum (10%, AGC TECHNO GLASS CO., LTD.), a non-essential amino acid solution (1%, Gibco), and penicillin-streptomycin (each 200 IU/ml, 200 μg/ml, Gibco). The Caco-2 cells were cultured under humidified conditions at 37° C. and 5% CO2, and subcultured for every 4 to 5 days. For the permeation test, the cells were cultured on a membrane filter in a 12-transwell (Millipore). To a basal side 1.5 ml of the culture medium was added and 0.5 ml of culture medium was added to an apical side, and the cells were cultured for approximately 2 weeks. The enzymatic hydrolysate of the fermented milk was added to the apical side of the cultured Caco-2 cells. Peptides which were permeated to the basal side were collected. For comparison, the same test was performed on a digestive tract enzyme-degraded product of non-fermented reconstituted skimmed milk with a reconstitution ratio of 8.9%.
The peptides which were permeated to the basal solution were subjected to solid phase extraction (SepPak tC18, Waters) to thereby concentrate the peptide component and then the peptides were determine by using a high-performance liquid chromatograph tandem mass spectrometer (LCMS-IT-TOF, Shimadzu Corporation). PEAKS (Bioinformatics Solutions Inc) was used to analyze the data. Based on the information obtained from MS/MS, de novo sequencing was performed to determine the amino acid sequence of the permeated peptides. Comparison was made between the detected peptides and peptides contained in a digestive tract enzyme-hydrolyzed product of a milk protein.

Row | SMILES | Permeation through Caco-2 monolayer (apical to basal side)
1 | CC(C)[C@H](NC(=O)[C@@H]1CCCN1)C(=O)N[C@H](C(=O)N[C@H](C(=O)N1CCC[C@H]1C(=O)N1CCC[C@H]1C(=O)O)C(C)C)C(C)C [Pro-Val-Val-Val-Pro-Pro] (H-PVVVPP-OH; N-terminus and C-terminus assumed) | permeable
2 | NC(=O)CC[C@H](NC(=O)[C@@H]1CCCN1C(=O)[C@@H]1CCCN1C(=O)[C@@H](N)Cc1ccccc1)C(=O)O [Phe-Pro-Pro-Gln] (H-FPPQ-OH; N-terminus and C-terminus assumed) | permeable
3 | CC(C)C[C@H](N)C(=O)N1CCC[C@H]1C(=O)N1CCC[C@H]1C(=O)N[C@H](C(=O)O)[C@@H](C)O [Leu-Pro-Pro-Thr] (H-LPPT-OH; N-terminus and C-terminus assumed) | permeable
4 | CC[C@H](C)[C@H](N)C(=O)N1CCC[C@H]1C(=O)N1CCC[C@H]1C(=O)O [Ile-Pro-Pro] | permeable
5 | CC[C@H](C)[C@H](NC(=O)[C@@H](N)CC(N)=O)C(=O)N1CCC[C@H]1C(=O)N1CCC[C@H]1C(=O)N[C@@H](CC(C)C)C(=O)O [Asn-Ile-Pro-Pro-Leu] (H-NIPPL-OH; N-terminus and C-terminus assumed) | permeable
6 | CC(C)[C@H](N)C(=O)N1CCC[C@H]1C(=O)N1CCC[C@H]1C(=O)N[C@@H](Cc1ccccc1)C(=O)O [Val-Pro-Pro-Phe] (H-VPPF-OH; N-terminus and C-terminus assumed) | permeable
7 | CC[C@H](C)[C@H](N)C(=O)N1CCC[C@H]1C(=O)N1CCC[C@H]1C(=O)N[C@@H](CC(C)C)C(=O)O [Ile-Pro-Pro-Leu] (H-IPPL-OH; N-terminus and C-terminus assumed) | permeable
8 | CC(C)[C@H](N)C(=O)N1CCC[C@H]1C(=O)N1CCC[C@H]1C(=O)O [Val-Pro-Pro] | permeable
